{
  "source": "patent US20260248729A1",
  "about": "“NOVEL ORAL DOSAGE FORM” (Neon Healthcare Ltd, priority 2022, published 2026)",
  "origin": "cited, not measured here",
  "key": {"[1]": {"details": "administered orally in the form of phenelzine sulfate"}},
  "data": [
    {"smiles": "NNCCc1ccccc1", "note": "[Phenelzine, 2-phenylethylhydrazine]", "values": [
      {"measurement": "Time to peak plasma concentration", "setting": "[1]", "result": 43, "unit": "min"},
      {"measurement": "half-life", "setting": "[1]", "result": 11.6, "unit": "h"},
      {"measurement": "major metabolites phenylacetic acid and parahydroxyphenylacetic acid recovered, of the excreted dose of phenelzine in the urine", "setting": "over the course of 96 hours after single doses", "result": "about 73%"}
    ]}
  ]
}
